In patent US11597706B2, “Compounds and compositions for treating conditions associated with NLRP activity” (Novartis AG, priority 2016, dated 2023):

target: T1, hNLRP3 (THP-1, IL-1β) (Homo sapiens, UniProt Q96P20); experiment: IL-1β production in PMA-differentiated THP-1 cells stimulated with gramicidin; format: cell-based; conditions: Table 2, gramicidin 5 μM, IL-1β readout
T1 construct: THP-1 cells were purchased from the American Type Culture Collection; host or cells: THP-1 cells, PMA-differentiated, stimulated with gramicidin
T1 sequence (Q96P20 whole entry): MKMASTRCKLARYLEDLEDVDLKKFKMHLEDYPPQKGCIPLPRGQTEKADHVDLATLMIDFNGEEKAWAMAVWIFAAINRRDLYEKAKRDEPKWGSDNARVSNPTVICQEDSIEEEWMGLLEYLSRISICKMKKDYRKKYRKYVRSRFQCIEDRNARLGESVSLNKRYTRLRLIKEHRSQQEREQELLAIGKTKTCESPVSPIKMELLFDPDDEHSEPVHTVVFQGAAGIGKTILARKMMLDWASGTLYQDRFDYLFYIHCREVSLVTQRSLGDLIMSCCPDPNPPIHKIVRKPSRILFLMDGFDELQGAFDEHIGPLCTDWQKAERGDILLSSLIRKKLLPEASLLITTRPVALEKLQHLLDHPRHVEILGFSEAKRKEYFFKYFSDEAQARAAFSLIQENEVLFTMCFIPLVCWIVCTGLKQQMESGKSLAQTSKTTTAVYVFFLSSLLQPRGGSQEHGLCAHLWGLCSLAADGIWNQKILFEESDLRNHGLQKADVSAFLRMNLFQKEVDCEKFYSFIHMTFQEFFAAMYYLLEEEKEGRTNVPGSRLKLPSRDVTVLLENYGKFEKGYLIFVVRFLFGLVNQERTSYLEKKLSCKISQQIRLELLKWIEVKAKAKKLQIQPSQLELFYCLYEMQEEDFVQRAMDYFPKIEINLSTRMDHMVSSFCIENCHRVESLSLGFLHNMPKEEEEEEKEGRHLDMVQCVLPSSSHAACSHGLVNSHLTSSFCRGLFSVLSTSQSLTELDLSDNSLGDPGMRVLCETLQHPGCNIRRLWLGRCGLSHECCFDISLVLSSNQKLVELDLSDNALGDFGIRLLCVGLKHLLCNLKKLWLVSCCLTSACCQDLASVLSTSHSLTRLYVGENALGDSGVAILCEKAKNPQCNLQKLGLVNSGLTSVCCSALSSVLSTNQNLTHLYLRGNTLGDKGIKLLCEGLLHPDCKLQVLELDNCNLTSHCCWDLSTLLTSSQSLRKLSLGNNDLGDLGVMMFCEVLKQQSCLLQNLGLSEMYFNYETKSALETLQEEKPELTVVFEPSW
Description: IL-1β Production in PMA-Differentiated THP-1 Cells Stimulated With Gramicidin.
Cell culture-THP-1 cells were purchased from the American Type Culture Collection and sub-cultured according to instructions from the supplier. Prior to experiments, cells were cultured in RPMI 1640 containing 10% heat inactivated FBS, penicillin (100 units/ml) and streptomycin (100 μg/ml), and maintained in log phase prior to experimental setup. Prior to the experiment THP-1 were treated with PMA (Phorbol 12-myristate 13-acetate) (10 μg/ml) for 24 hours. The day of the experiment the media was removed and attaching cells were treated with trypsin for 2 minutes, cells were then collected, washed with PBS (phosphate buffer saline), spin down, resuspended in 2% heat inactivated FBS with RPMI at a concentration of 1×10^6 cells/ml, and 100 μl was plated in a 96 well plate. Cells were incubated with compounds for 1 hours and then stimulated with Gramicidin (5 μM) (Enzo) for 2 hours. Cell free supernatant was collected and the production of IL-1β was evaluated by ELISA. Compounds were dissolved in dimethyl sulfoxide (DMSO) and added to the culture medium to achieve desired concentration (e.g. 100, 30, 10, 3, 1, 0.3 or 0.1 μM). A vehicle only control was run concurrently with each experiment. Final DMSO concentration was 1%.
THP-1 cells were purchased from the American Type Culture Collection and sub-cultured according to instructions from the supplier. Prior to experiments, cells were cultured in complete RPMI 1640 (containing 10% heat inactivated FBS, penicillin (100 units/ml) and streptomycin (100 μg/ml)), and maintained in log phase prior to experimental setup. Prior to the experiment THP-1 were treated with PMA (Phorbol 12-myristate 13-acetate) (20 ng/ml) for 16-18 hours. On the day of the experiment the media was removed and adherent cells were detached with trypsin for 5 minutes. Cells were then harvested, washed with complete RPMI 1640, spun down, resuspended in RPMI 1640 (containing 2% heat inactivated FBS, penicillin (100 units/ml) and streptomycin (100 μg/ml). The cells were plated in a 384-well plate at a density of 50,000 cells/well (final assay volume 50 μl). Compounds were dissolved in dimethyl sulfoxide (DMSO) and added to the culture medium to achieve desired concentration (e.g. 100, 33, 11, 3.7, 1.2, 0.41, 0.14, 0.046, 0.015, 0.0051, 0.0017 μM). Cells were incubated with compounds for 1 hour and then stimulated with gramicidin (5 μM) (Enzo) for 2 hours. Cell free supernatant was collected and the production of IL-1β was evaluated by HTRF (cisbio). A vehicle only control was run concurrently with each experiment. Final DMSO concentration was 0.38%.

SMILES | IC50
CC(C)c1cc(Cl)cc(C(C)C)c1NC(=O)NS(=O)(=O)c1ccc(C(C)(C)O)cc1 [Compound 162, N-(4-chloro-2,6-diisopropylphenylcarbamoyl)-4-(2-hydroxypropan-2-yl)benzenesulfonamide] | < 1000 nM
CC(C)(O)c1ccc(S(=O)(=O)NC(=O)Nc2c3c(cc4c2CCC4)CCC3)cc1CO [Compound 163, N-(1,2,3,5,6,7-hexahydro-sindacen-4-ylcarbamoyl)-3-(hydroxymethyl)-4-(2-hydroxypropan-2-yl)benzenesulfonamide] | < 1000 nM
CC(C)c1cc(F)cc(C(C)C)c1NC(=O)NS(=O)(=O)c1ccc(C(C)(C)O)cc1 [Compound 165, N-(4-fluoro-2,6-diisopropylphenylcarbamoyl)-4-(2-hydroxypropan-2-yl)benzenesulfonamide] | < 1000 nM
CC(C)(O)c1ccc(S(=O)(=O)NC(=O)Nc2c3c(cc4c2CCC4)CCC3)cn1 [Compound 166, N-(1,2,3,5,6,7-hexahydros-indacen-4-ylcarbamoyl)-6-(2-hydroxypropan-2-yl)pyridine-3-sulfonamide] | < 1000 nM
CC(C)(O)c1ccc(S(=O)(=O)NC(=O)Nc2c3c(cc4c2CCC4)CCC3)cc1 [Compound 167, N-(1,2,3,5,6,7-hexahydros-indacen-4-ylcarbamoyl)-4-(2-hydroxypropan-2-yl)benzenesulfonamide] | < 1000 nM
CC(C)c1cccc(C(C)C)c1NC(=O)NS(=O)(=O)c1ccc(C(C)(C)O)cc1 [Compound 169, N-(2,6-diisopropylphenylcarbamoyl)-4-(2-hydroxypropan-2-yl)benzenesulfonamide] | 1000 to 5000 nM
COC(=O)c1ccc(F)c(S(=O)(=O)NC(=O)Nc2c(C(C)C)cc(Cl)cc2C(C)C)c1 [Compound 171, methyl 3-(N-(4-chloro-2,6-diisopropylphenylcarbamoyl)sulfamoyl)-4-fluorobenzoate] | 1000 to 5000 nM

Other lines, results leading:

IC50 | SMILES
5000 to 15000 nM | CC(C)c1ccc(F)c(C(C)C)c1NC(=O)NS(=O)(=O)c1cc(-c2ccncc2)cc(C(C)(C)O)c1 [Compound 159, N-(3-fluoro-2,6-diisopropylphenylcarbamoyl)-3-(2-hydroxypropan-2-yl)-5-(pyridin-4-yl)benzenesulfonamide]
< 1000 nM | CC(C)(O)c1ccc(S(=O)(=O)NC(=O)Nc2c3c(c(F)c4c2CCC4)CCC3)cc1 [Compound 160, N-(8-fluoro-1,2,3,5,6,7-hexahydro-sindacen-4-ylcarbamoyl)-4-(2-hydroxypropan-2-yl)benzenesulfonamide]
< 1000 nM | CC(C)(O)c1ccc(S(=O)(=O)NC(=O)Nc2c3c(c(Cl)c4c2CCC4)CCC3)cc1 [Compound 161, N-(8-chloro-1,2,3,5,6,7-hexahydro-sindacen-4-ylcarbamoyl)-4-(2-hydroxypropan-2-yl)benzenesulfonamide]
< 1000 nM | CC(C)(O)c1ccc(S(=O)(=O)NC(=O)Nc2c3c(c(C#N)c4c2CCC4)CCC3)cc1 [Compound 164, N-(8-cyano-1,2,3,5,6,7-hexahydro-sindacen-4-ylcarbamoyl)-4-(2-hydroxypropan-2-yl)benzenesulfonamide]
1000 to 5000 nM | CC(C)c1cc(C#N)cc(C(C)C)c1NC(=O)NS(=O)(=O)c1ccc(C(C)(C)O)cc1 [Compound 168, N-(4-cyano-2,6-diisopropylphenylcarbamoyl)-4-(2-hydroxypropan-2-yl)benzenesulfonamide]
1000 to 5000 nM | CC(C)c1ccc(F)c(C(C)C)c1NC(=O)NS(=O)(=O)c1ccc(C(C)(C)O)cc1 [Compound 170, N-(3-fluoro-2,6-diisopropylphenylcarbamoyl)-4-(2-hydroxypropan-2-yl)benzenesulfonamide]
